# Measurements taken from paper PMC6138237, “Machine intelligence decrypts β-lapachone as an allosteric 5-lipoxygenase inhibitor” (Chemical Science, 2018).
# Read-outs that look alike come from different tables or passages of the source.
# Legend:
# [1] = target: T1, 15-LO-2 (Homo sapiens, UniProt O15296); experiment: 15-LO-2 inhibition assay, Cerep (Method A, fluorometry); format: biochemical; conditions: control
# T1 sequence (O15296 1-676): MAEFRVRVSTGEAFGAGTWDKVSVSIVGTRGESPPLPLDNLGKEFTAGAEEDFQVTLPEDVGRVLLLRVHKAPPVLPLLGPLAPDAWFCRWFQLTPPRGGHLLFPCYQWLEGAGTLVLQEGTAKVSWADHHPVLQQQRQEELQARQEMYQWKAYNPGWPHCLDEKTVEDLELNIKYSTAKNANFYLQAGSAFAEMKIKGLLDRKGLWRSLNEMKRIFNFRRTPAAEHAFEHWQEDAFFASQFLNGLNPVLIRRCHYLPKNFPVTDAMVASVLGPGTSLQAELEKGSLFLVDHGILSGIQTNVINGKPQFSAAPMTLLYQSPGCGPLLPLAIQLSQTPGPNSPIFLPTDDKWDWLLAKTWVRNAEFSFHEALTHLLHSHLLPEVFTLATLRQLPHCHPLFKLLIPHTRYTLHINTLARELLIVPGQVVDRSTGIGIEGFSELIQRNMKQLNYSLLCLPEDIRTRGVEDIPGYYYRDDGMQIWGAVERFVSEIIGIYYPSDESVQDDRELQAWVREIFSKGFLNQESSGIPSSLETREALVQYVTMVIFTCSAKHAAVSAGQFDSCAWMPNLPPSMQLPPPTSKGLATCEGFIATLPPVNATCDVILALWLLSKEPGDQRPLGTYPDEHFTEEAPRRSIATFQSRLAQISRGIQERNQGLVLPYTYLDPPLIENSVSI
# [2] = target: T2, 5-LO (Homo sapiens, UniProt P09917); experiment: 5-LO inhibition assay, Cerep (Method A, indirect fluorogenic readout, Rhodamine 123); format: biochemical; conditions: 5-LO
# T2 sequence (P09917 1-674): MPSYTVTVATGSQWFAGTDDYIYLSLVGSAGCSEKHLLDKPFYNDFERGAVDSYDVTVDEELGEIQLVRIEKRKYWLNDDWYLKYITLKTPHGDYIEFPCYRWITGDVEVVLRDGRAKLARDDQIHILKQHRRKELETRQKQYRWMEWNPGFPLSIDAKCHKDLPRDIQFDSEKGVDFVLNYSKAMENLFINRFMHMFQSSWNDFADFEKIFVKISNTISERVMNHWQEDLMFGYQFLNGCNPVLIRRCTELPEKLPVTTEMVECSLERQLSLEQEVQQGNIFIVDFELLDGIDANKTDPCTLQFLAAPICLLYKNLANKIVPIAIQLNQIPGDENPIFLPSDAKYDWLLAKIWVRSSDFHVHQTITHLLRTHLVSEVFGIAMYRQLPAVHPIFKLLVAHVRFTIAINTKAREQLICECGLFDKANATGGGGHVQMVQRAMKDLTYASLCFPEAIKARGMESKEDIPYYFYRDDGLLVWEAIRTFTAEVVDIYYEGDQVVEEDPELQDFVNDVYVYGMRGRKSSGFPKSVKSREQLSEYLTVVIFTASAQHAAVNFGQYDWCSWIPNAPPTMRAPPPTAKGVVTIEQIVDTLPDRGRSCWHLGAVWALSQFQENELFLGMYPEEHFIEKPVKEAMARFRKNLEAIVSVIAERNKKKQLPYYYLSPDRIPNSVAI
# [3] = target: T3, EP3 (Homo sapiens, UniProt P43115); experiment: EP3 functional antagonist assay, Cerep (sulprostone 0.1 nM, impedance); conditions: EP3 concentration–inhibition curve; n = 2
# T3 sequence (P43115 1-390): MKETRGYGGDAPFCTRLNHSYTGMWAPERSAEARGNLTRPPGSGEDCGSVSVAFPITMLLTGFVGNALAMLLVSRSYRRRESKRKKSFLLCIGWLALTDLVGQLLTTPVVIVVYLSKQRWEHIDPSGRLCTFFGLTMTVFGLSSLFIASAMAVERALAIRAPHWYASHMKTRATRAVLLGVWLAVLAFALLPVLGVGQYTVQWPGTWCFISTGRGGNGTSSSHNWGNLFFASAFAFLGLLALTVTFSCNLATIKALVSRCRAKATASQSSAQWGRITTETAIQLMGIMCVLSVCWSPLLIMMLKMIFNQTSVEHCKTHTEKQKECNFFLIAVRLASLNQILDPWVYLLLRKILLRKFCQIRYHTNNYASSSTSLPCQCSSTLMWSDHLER
# [4] = target: PDE5 (Homo sapiens, UniProt O76074); experiment: Phosphodiesterase 5 inhibition assay, Cerep (scintillation counting); format: biochemical; conditions: PDE5; control
# [5] = Dynamic light scattering (colloidal aggregation); format: physicochemical; conditions: 25 °C
# [6] = target: T4, EP1 (Homo sapiens, UniProt P34995); experiment: EP1 functional agonist assay, Cerep (intracellular Ca2+)
# T4 sequence (P34995 1-402): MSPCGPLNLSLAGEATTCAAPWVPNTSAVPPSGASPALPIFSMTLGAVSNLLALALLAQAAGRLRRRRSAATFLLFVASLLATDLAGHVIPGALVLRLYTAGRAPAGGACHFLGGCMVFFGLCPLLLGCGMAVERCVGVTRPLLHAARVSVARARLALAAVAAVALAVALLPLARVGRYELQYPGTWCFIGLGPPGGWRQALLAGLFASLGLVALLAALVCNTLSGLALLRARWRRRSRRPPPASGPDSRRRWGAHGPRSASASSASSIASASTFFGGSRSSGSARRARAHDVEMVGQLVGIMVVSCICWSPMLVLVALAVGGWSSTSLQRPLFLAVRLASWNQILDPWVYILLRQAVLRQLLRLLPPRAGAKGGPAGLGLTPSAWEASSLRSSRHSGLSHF
# [7] = target: T5, TRPM8 (Homo sapiens, UniProt Q7Z2W7); experiment: TRPM8 functional agonist assay, Cerep (intracellular Ca2+); format: cell-based
# T5 construct: Cerep, SA (fee-for-service assay) printed G018533 (citation number 33 glued on)
# T5 sequence (Q7Z2W7 whole entry): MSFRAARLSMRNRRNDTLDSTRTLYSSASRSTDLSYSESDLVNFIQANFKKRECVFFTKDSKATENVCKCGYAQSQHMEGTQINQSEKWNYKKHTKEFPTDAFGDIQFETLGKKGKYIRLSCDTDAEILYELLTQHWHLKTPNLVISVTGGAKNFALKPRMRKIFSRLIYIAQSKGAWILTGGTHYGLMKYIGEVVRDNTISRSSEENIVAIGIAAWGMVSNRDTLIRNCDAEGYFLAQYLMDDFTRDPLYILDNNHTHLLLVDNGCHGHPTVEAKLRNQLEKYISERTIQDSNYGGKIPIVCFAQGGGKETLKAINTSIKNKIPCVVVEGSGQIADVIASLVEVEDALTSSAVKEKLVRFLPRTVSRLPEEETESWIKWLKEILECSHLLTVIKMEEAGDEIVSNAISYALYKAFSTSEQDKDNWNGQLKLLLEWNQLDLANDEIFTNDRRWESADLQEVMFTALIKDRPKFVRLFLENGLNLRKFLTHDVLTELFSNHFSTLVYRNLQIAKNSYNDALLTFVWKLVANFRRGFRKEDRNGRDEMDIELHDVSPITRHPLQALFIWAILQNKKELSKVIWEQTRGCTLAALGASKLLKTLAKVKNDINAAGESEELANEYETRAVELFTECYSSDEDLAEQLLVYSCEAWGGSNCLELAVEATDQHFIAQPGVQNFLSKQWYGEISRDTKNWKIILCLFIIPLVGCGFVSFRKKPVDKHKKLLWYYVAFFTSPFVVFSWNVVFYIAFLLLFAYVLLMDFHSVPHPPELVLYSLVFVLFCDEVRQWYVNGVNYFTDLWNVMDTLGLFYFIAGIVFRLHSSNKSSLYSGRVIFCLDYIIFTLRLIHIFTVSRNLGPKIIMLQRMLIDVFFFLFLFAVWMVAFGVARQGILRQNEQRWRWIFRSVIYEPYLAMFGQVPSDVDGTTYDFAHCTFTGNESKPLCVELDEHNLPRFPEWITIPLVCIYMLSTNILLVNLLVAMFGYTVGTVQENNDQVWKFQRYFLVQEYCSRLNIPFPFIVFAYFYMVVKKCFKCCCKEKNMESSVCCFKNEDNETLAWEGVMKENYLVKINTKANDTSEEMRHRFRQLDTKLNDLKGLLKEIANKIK
# [8] = target: EP4 (Homo sapiens, UniProt P35408); experiment: EP4 functional agonist assay, Cerep (cAMP, HTRF)
# EP4, sequence (P35408 whole entry): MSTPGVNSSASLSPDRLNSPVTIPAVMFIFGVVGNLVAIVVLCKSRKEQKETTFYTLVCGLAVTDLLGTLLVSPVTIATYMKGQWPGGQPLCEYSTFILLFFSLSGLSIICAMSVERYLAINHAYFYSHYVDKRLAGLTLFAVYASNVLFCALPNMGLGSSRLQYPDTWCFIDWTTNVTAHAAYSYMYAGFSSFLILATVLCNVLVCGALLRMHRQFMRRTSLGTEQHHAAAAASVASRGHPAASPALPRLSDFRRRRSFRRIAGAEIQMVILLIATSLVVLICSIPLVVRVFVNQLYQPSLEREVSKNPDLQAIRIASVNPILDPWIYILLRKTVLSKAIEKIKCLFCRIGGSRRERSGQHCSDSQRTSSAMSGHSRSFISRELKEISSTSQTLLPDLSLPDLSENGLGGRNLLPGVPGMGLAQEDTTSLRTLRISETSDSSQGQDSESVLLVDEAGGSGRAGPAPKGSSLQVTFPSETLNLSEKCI
# [9] = target: EP2 (Homo sapiens, UniProt P43116); experiment: EP2 functional agonist assay, Cerep (cAMP, HTRF)
# EP2, sequence (P43116 whole entry): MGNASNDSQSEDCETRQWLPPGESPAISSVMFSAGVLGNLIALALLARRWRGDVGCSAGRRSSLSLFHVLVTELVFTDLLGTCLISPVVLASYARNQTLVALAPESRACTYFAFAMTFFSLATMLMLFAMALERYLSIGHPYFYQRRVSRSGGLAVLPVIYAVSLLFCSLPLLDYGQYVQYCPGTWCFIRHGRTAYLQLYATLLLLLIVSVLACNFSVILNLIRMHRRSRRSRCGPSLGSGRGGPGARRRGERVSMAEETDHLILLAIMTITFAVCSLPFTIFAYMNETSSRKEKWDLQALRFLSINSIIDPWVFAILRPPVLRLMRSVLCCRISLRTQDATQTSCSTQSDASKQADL
# [10] = target: TRPV1 (Homo sapiens, UniProt Q8NER1); experiment: TRPV1 functional agonist assay, Cerep (intracellular Ca2+); format: cell-based
# TRPV1, sequence (Q8NER1 whole entry): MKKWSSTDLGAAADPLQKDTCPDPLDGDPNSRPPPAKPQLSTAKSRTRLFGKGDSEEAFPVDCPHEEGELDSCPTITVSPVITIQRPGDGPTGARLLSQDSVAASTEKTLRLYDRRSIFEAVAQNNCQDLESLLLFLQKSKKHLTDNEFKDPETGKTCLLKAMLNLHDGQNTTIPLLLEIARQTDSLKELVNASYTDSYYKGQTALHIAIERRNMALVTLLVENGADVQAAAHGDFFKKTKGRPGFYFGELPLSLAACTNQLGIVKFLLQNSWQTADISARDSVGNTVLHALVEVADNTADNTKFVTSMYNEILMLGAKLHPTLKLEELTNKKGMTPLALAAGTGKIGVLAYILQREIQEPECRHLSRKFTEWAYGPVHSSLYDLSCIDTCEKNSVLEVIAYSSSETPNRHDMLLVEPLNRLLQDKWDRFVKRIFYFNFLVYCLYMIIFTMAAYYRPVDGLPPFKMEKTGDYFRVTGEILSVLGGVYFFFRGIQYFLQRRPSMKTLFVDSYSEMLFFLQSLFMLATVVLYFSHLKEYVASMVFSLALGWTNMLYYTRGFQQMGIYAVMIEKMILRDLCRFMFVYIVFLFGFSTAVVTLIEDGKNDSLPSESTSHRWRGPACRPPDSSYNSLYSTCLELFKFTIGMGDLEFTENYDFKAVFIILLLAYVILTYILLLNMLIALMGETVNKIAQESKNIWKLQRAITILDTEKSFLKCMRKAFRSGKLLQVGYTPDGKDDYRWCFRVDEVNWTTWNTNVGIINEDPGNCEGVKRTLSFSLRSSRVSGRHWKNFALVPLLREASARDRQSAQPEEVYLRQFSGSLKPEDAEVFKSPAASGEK
# [11] = target: T3, EP3; experiment: EP3 functional agonist assay, Cerep (impedance)
# [12] = target: SIK (Homo sapiens, UniProt P57059); experiment: ExpresS Diversity Kinase Profile, Cerep (LANCE): SIK; format: biochemical; conditions: control
# SIK, sequence (P57059 whole entry): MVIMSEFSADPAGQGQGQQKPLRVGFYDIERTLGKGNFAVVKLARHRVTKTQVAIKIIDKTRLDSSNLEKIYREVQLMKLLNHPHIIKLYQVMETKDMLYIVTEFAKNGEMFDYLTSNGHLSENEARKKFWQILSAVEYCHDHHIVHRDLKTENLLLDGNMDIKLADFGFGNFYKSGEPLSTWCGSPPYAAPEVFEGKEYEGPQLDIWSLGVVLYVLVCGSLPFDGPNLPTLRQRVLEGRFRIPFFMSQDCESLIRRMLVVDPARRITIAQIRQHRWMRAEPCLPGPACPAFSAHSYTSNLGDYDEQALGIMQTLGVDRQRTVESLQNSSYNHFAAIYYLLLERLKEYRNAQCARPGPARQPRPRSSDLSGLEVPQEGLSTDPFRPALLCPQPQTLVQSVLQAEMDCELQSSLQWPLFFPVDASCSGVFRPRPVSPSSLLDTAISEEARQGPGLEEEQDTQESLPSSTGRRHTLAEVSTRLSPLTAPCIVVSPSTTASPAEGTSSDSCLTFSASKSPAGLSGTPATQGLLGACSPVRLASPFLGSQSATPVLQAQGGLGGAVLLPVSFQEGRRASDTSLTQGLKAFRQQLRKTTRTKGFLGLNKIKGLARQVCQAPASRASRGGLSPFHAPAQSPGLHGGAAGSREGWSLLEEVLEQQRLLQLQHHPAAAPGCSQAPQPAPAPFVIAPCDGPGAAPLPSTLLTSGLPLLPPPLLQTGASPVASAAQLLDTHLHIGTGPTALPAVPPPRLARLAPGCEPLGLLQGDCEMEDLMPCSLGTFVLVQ
# [13] = target: p38α (Homo sapiens, UniProt Q16539); experiment: ExpresS Diversity Kinase Profile, Cerep (LANCE): p38α; format: biochemical; conditions: control
# p38α, sequence (Q16539 whole entry): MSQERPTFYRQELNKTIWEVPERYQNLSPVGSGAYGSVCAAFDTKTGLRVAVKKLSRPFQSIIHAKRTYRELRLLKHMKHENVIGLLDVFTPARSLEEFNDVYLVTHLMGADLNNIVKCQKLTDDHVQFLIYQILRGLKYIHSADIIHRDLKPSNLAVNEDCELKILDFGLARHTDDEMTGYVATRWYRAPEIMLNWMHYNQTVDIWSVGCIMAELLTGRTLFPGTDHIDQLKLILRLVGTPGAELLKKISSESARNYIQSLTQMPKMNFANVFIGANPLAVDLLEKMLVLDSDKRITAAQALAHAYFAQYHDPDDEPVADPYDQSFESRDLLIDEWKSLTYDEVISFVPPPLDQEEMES
# [14] = n = 2, read-out: % inhibition of control values, Mean
# [15] = read-out: % inhibition of control values, 1st measure
# [16] = read-out: % inhibition of control values, 2nd measure
# [17] = read-out: % of control values, 1st measurement
# [18] = read-out: % of control values, 2nd measurement
# [19] = read-out: % of control values, Mean
structure (smiles),measurement,setting,value
"N#C/C(=C\c1ccc(O)c(O)c1)C(=O)OCCc1cccs1 [Compound 2-TEDC, reference compound]",nHill,[1],0.7
CC1(C)OC2=C(C(=O)C(=O)c3ccccc32)C1Nc1ccccc1 (stereo not drawn) [Compound 2],inhibition at 5 µM,[2]; [14],32.2%
same,inhibition at 5 µM,[2]; [15],42.2%
same,inhibition at 5 µM,[2]; [16],22.2%
CC1(C)OC2=C(C(=O)C(=O)c3ccccc32)C1Nc1ccc(Cl)cc1 (stereo not drawn) [Compound 3],inhibition at 5 µM,[2]; [14],31.1%
same,inhibition at 5 µM,[2]; [15],33.1%
same,inhibition at 5 µM,[2]; [16],29%
CC1(C)OC2=C(C(=O)C(=O)c3ccccc32)C1O (stereo not drawn) [Compound 4],inhibition at 5 µM,[2]; [14],72.8%
same,inhibition at 5 µM,[2]; [15],77.4%
same,inhibition at 5 µM,[2]; [16],68.2%
CC1(C)OC2=C(CC1O)C(=O)C(=O)c1ccccc12 (stereo not drawn) [Compound 5],inhibition at 5 µM,[2]; [14],41.1%
same,inhibition at 5 µM,[2]; [15],47.2%
same,inhibition at 5 µM,[2]; [16],35.5%
CC1(C)OC2=C(C(=O)C(=O)c3ccccc32)C1Nc1ccc(C(=O)/C=C/c2ccccc2)cc1 (stereo not drawn) [Compound 6],inhibition at 5 µM,[2]; [14],54.8%
same,inhibition at 5 µM,[2]; [15],51.5%
same,inhibition at 5 µM,[2]; [16],58.1%
CC(=O)OCC1OC(OCc2cn(CC3C4=C(OC3(C)C)c3ccccc3C(=O)C4=O)nn2)C(OC(C)=O)C(OC(C)=O)C1OC(C)=O (stereo not drawn) [Compound 7],inhibition at 5 µM,[2]; [14],75.4%
same,inhibition at 5 µM,[2]; [15],73.8%
same,inhibition at 5 µM,[2]; [16],76.9%
CC(=O)OCC1OC(OCc2cn(C3C4=C(OC3(C)C)c3ccccc3C(=O)C4=O)nn2)C(OC(C)=O)C(OC(C)=O)C1OC(C)=O (stereo not drawn) [Compound 8],inhibition at 5 µM,[2]; [14],66.6%
same,inhibition at 5 µM,[2]; [15],68.4%
same,inhibition at 5 µM,[2]; [16],64.8%
"COc1ccc(Br)cc1S(=O)(=O)NC(=O)/C=C/c1ccccc1Cc1ccc2ccccc2c1 [Compound L798106, reference compound]",IC50,[3],370 nM
"OCCN(CCO)c1nc(N2CCCCC2)c2nc(N(CCO)CCO)nc(N3CCCCC3)c2n1 [Dipyridamole, reference compound]",nHill,[4],1.3
"CC(C)=CCC1=C(O)C(=O)c2ccccc2C1=O [Lapachol, lapachol, reference compound]",Count rate (kcps),[5]; 25 µM in H2O + 0.1% DMSO,250.6 kcps
same,Count rate (kcps),[5]; 50 µM in H2O + 0.1% DMSO,198.4 kcps
same,Count rate (kcps),[5]; 100 µM in H2O + 0.1% DMSO,882.6 kcps
same,remaining activity at 150 µM,[6]; [17],-11.3%
same,remaining activity at 150 µM,[6]; [18],-11.3%
same,remaining activity at 150 µM,[6]; [19],-11.3%
same,agonist response (% of control) at 150 µM,[7]; [17],-20.4%
same,agonist response (% of control) at 150 µM,[7]; [18],-20.4%
same,agonist response (% of control) at 150 µM,[7]; [19],-20.4%
same,inhibition at 150 µM,[2]; [14],87.1%
same,inhibition at 150 µM,[2]; [15],84.9%
same,inhibition at 150 µM,[2]; [16],89.3%
same,remaining activity at 150 µM,[8]; [17],8%
same,remaining activity at 150 µM,[8]; [18],5.8%
same,remaining activity at 150 µM,[8]; [19],6.9%
same,remaining activity at 150 µM,[9]; [17],-1.2%
same,remaining activity at 150 µM,[9]; [18],-2.4%
same,remaining activity at 150 µM,[9]; [19],-1.8%
same,remaining activity at 150 µM,[10]; [17],-13.1%
same,remaining activity at 150 µM,[10]; [18],-13.1%
same,remaining activity at 150 µM,[10]; [19],-13.1%
same,remaining activity at 150 µM,[11]; [17],22.7%
same,remaining activity at 150 µM,[11]; [18],21.7%
same,remaining activity at 150 µM,[11]; [19],22.2%
"CC(Cc1ccc(O)c(O)c1)C(C)Cc1ccc(O)c(O)c1 (stereo not drawn) [NDGA, reference compound]",nHill,[2]; control,1.5
"Cn1cc(C2=C(c3cn(CCCSC(=N)N)c4ccccc34)C(=O)NC2=O)c2ccccc21 [Ro-318220, reference compound]",nHill,[12],0.7
"Oc1ccc(-c2nc(-c3ccncc3)c(-c3ccc(F)cc3)[nH]2)cc1 [SB202190, reference compound]",nHill,[13],1.3
